Read-outs that look alike come from different tables or passages of the source.

What all share (type): in vivo
Assay [1] concerns Mycosphaerella graminicola; anamorph: Septoria tritici. Briefly: Fungicidal activity: leaf blotch of wheat (SEPTTR), wheat seedlings. Particulars: Zymoseptoria tritici, 100 ppm, wheat. The procedure, abridged:
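Percent control derives from disease severity on treated versus untreated first leaves, rated 0–100% when symptoms were fully expressed on untreated plants. Yuma seedlings were inoculated with S. tritici spores either before or after spraying to run-off. The spray was acetone solution diluted 1:9 in water with 110 ppm Triton X-100. Infection took place in 100% RH dew chambers, then a 20 °C greenhouse.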

The test system of assay [2] is Puccinia triticina; synonym: Puccinia recondita f. sp. tritici. The assay can be described thus: Fungicidal activity: wheat brown rust (PUCCRT), wheat seedlings. Particulars: 100 ppm, wheat. The essentials: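 Wheat (Yuma) seedlings at first-leaf stage, inoculated with Puccinia triticina spores before or after treatment, held overnight in dark dew room at 22° C, 100% RH, then greenhouse at 24° C. Acetone solutions diluted with nine volumes water containing 110 ppm Triton X-100, sprayed to run-off. Percent disease control derived from severity (0–100%) relative to untreated plants.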

The next assay deals with Uncinula necator. Briefly: Fungicidal activity: grape powdery mildew (UNCINE). The conditions noted are these: Erysiphe necator, 24 h, 1 Day Protectant, read-out: Disease Control UNCINE 1 DP. How it is done: Technical grades of materials were dissolved in acetone, which were then mixed with nine volumes of water containing 110 ppm Triton X-100. The fungicide solutions were applied onto wheat seedlings using an automated booth sprayer to run-off. All sprayed plants were allowed to air dry prior to further handling. Wheat plants (variety Yuma) were grown from seed in a greenhouse in 50% mineral soil/50% soil-less Metro mix until the first leaf was fully emerged, with 7-10 seedlings per pot. These plants were inoculated with an aqueous spore suspension of Septoria tritici either prior to or after fungicide treatments. After inoculation the plants were kept in 100% relative humidity (one day in a dark dew chamber followed by two to three days in a lighted dew chamber at 20° C.) to permit spores to germinate and infect the leaf. The plants were then transferred to a greenhouse set at 20° C. for disease to develop. When disease symptoms were fully expressed on the 1st leaves of untreated plants, infection levels were assessed on a scale of 0 to 100 percent disease severity. Percent disease control was calculated using the ratio of disease severity on treated plants relative to untreated plants. Evaluation of Fungicidal Activity: Grape Powdery Mildew (Uncinula necator; Bayer Code […]) Grape seedlings (variety Carignane) were grown in soil-less Metro mix, with one plant per pot, and used in the test when approximately one month old. Plants were inoculated 24 hr after fungicide treatment by shaking spores from infected leaves over test plants. Plants were maintained in a greenhouse set at 20° C. until disease was fully developed. Fungicide formulation, application and disease assessment on the sprayed leaves followed the procedures as described in the Example A.

For another assay, the system named is Leptosphaeria nodorum. Briefly: Fungicidal activity: wheat glume blotch (LEPTNO). Particulars: Parastagonospora nodorum, 24 h, 1 Day Protectant, read-out: Disease Control LEPTNO 1 DP. How it is done: Technical grades of materials were dissolved in acetone, which were then mixed with nine volumes of water containing 110 ppm Triton X-100. The fungicide solutions were applied onto wheat seedlings using an automated booth sprayer to run-off. All sprayed plants were allowed to air dry prior to further handling. Wheat plants (variety Yuma) were grown from seed in a greenhouse in 50% mineral soil/50% soil-less Metro mix until the first leaf was fully emerged, with 7-10 seedlings per pot. These plants were inoculated with an aqueous spore suspension of Septoria tritici either prior to or after fungicide treatments. After inoculation the plants were kept in 100% relative humidity (one day in a dark dew chamber followed by two to three days in a lighted dew chamber at 20° C.) to permit spores to germinate and infect the leaf. The plants were then transferred to a greenhouse set at 20° C. for disease to develop. When disease symptoms were fully expressed on the 1st leaves of untreated plants, infection levels were assessed on a scale of 0 to 100 percent disease severity. Percent disease control was calculated using the ratio of disease severity on treated plants relative to untreated plants. Evaluation of Fungicidal Activity: Wheat Glume Blotch (Leptosphaeria nodorum; Bayer Code […]) Wheat plants (variety Yuma) were grown from seed in a greenhouse in 50% mineral soil/50% soil-less Metro mix until the first leaf was fully emerged, with 7-10 seedlings per pot. These plants were inoculated with an aqueous spore suspension of Leptosphaeria nodorum 24 hr after fungicide treatments. After inoculation the plants were kept in 100% relative humidity (one day in a dark dew chamber followed by two days in a lighted dew chamber at 20° C.) to permit spores to germinate and infect the leaf. The plants were then transferred to a greenhouse set at 20° C. for disease to develop. Fungicide formulation, application and disease assessment followed the procedures as described in the Example A.

On to `COc1ccnc(C(=O)N[C@H]2COC[C@H](Oc3ccccc3)[C@@H](Oc3ccccc3)[C@H](C)OC2=O)c1OCOC(C)=O` [Compound 84], for which the pest or weed control at 100 ppm lay within 80 to 100% in assay [1] (24 h, 1 Day Protectant, read-out: Disease Control SEPTTR 1DP); 80 to 100% in assay [1] (72 h, 3 Day Curative, read-out: Disease Control SEPTTR 3DC); 80 to 100% in assay [2] (24 h, 1 Day Protectant, read-out: Disease Control PUCCRT 1DP); 80 to 100% in assay [2] (72 h, 3 Day Curative, read-out: Disease Control PUCCRT 3DC); 0 to 80% with Uncinula necator; 80 to 100% with Leptosphaeria nodorum.

These data come from patent US9144239B2, “Macrocyclic picolinamides as fungicides” (DOW AGROSCIENCES LLC, priority 2012, dated 2015).
